Results on 15 compounds are retold here after EP0068669A1, “Secondary phenylethanol amines, processes for their preparation and their pharmaceutical application” (priority 1981, dated 1983).

The structures appear in SMILES notation.

Common to all, as to type: in vivo
For assay [1], the system named is Female CFLP mice. The assay can be described thus: Effect on energy expenditure and food intake of mice. The settings on record: 19.5-26.3 mg/kg p.o. (per compound, see Dose column); for Mean Food Intake: percentage of mean food intake of mice dosed with water, over 21 hours after a single oral dose; for Mean Energy Expenditure (0-3 h) / Mean Energy Expenditure (0-21 h): percentage of mean rate of energy expenditure of mice dosed with water, single oral dose, 12 mice; for Mean Energy Expenditure (0-3 h): 0-3 h after dosing; for Mean Energy Expenditure (0-21 h): 0-21 h after dosing. As for the experimental part:
The compounds were dissolved in water by addition of one mole of hydrochloric acid per mole of compound and these solutions were administered orally to each of 12 mice. A further 12 mice were dosed orally with water. The mice were placed in boxes through which air was drawn and the oxygen content of the air leaving the boxes was measured. The energy expenditure of the mice was calculated for 21 hours after dosing from the volume of air leaving the boxes and its oxygen content, following the principles described by J.B. de V. Weir, J. Ph^ysiol. (London) 109, 1-9, (1949). The food intake of the mice was measured over this same period of 21 hours. The results are expressed as a percentage of the mean food intake or rate of energy expenditure of the mice dosed with water.

In assay [2] the test system is Female CFLP mice. As to the kind of experiment: Hypoglycaemic activity, subcutaneous glucose load in fasted mice. To be noted: oral dose 1.0-12.5 μmol/kg (per compound, see Dose column), 30 minutes before glucose 1 g/kg subcutaneously; area over 2 hours compared with control mice given water; mice fasted 24 hours. Here is the method: Female CFLP mice, weighing approximately 25 g, were fasted for 24 hours prior to the study. The compounds under study were administered orally as an aqueous solution to each of 8 mice. 30 minutes later a blood sample (20 µℓ) was obtained from the tail for the analysis of blood glucose. Immediately after taking this blood sample, glucose (1 g/kg body weight) was administered subcutaneously to each mouse. 8 mice were given water as a control. Blood samples were then obtained from each mouse at 30-minute intervals for 120 minutes.
Compounds that produced a significant (P<0.05) reduction of blood glucose, compared with control mice given water, at any time interval , were considered active. The area under the blood glucose curve over the 2 hour period after the administration of the glucose was calculated for each compound and compared with the value for control animals.

The subject of a further assay is Male CFLP mice. The assay can be described thus: Platelet aggregation inhibition activity, response to intravenous collagen. The settings on record: oral dose two hours before intravenous collagen 400 µg/kg; blood platelet concentration 30 sec after collagen; Aspirin 600(108), Example 8 2.5 (1) µmol(mg)/kg p.o. Here is the method: Male CFLP mice (ca 20 g, n=8) were dosed orally with compound or vehicle (controls) after an overnight fast. Two hours later each mouse received an intravenous dose of collagen (400 µg/kg, pH 6-6.6). Exactly 30 sec after injection of collagen, each mouse was placed in a chamber of C02 until respiration ceased. […] Each concentration was expressed as a per cent of that obtained in a tail blood sample taken immediately before injection of collagen.

For `CC(Cc1ccc(N2CCOCC2)cc1)NCC(O)c1cccc(C(F)(F)F)c1` (centres unmarked) [Example 12, N-[2-(4-(4-Morpholino)phenyl)-1-methylethyl]-2-hydroxy-2-(3-trifluoromethylphenyl)ethanamine], in the assay with Female CFLP mice [1], the “Mean Food Intake” value stood at 72 percentage, the “Mean Energy Expenditure (0-3 h)” value was found to be 143 percentage and the “Mean Energy Expenditure (0-21 h)” value was 121 percentage.

With `CC(Cc1ccc(N)cc1)NCC(O)c1cccc(C(F)(F)F)c1` (centres unmarked) [Example 7, N-[2-(4-Aminophenyl)-1-methylethyl]-2-hydroxy-2-(3-trifluoromethylphenyl) ethanamine], the “% Reduction in area under Blood glucose curve” value (from here on “% Reduction in area”) in the assay with Female CFLP mice [2] stood at 38.0%. Moreover, in the assay with Female CFLP mice [1], the “Mean Food Intake” value stood at 84 percentage, the “Mean Energy Expenditure (0-3 h)” value worked out at 182 percentage and the “Mean Energy Expenditure (0-21 h)” value was found to be 118 percentage.

As for `COC(=O)CNc1ccc(CC(C)NCC(O)c2cccc(C(F)(F)F)c2)cc1` (centres unmarked) [Example 8, N-[2-(4-Methoxycarbonylmethylaminophenyl)-1-methylethyl] -2-hydroxy-2-(3-trifluoromethylphenyl) ethanamine], the “% Reduction in area” value in the assay on Female CFLP mice [2] is reported as 36.2%. Also, the “% Inhibition of response to collagen” value in the assay on Male CFLP mice is 42 p<0.02%. Further, in the assay with Female CFLP mice [1], the “Mean Energy Expenditure (0-3 h)” value was 140 percentage.

As for `CC(Cc1ccc(NS(C)(=O)=O)cc1)NCC(O)c1ccccc1` (centres unmarked) [Example 1, N-(2-(4-Methylsulphonylaminophenyl)-1-methylethyl]-2-hydroxy-2-phenylethanamine], the “% Reduction in area” value in the assay with Female CFLP mice [2] came out at 24.7%. Also, in the assay on Female CFLP mice [1], the “Mean Food Intake” value was 80 percentage, the “Mean Energy Expenditure (0-3 h)” value came to 130 percentage and the “Mean Energy Expenditure (0-21 h)” value was 95 percentage.

`CCNc1ccc(CC(C)NCC(O)c2cccc(C(F)(F)F)c2)cc1` (centres unmarked) [Example 6, N-[2-(4-Ethylaminophenyl)-1-methylethyl]-2-hydroxy-2-(3-trifluoromethvlphenvl)ethanamine]: in the assay on Female CFLP mice [1], the “Mean Food Intake” value worked out at 108 percentage, the “Mean Energy Expenditure (0-3 h)” value was 169 percentage and the “Mean Energy Expenditure (0-21 h)” value worked out at 128 percentage.

Take `CC(=O)Oc1ccccc1C(=O)O` [Aspirin, reference compound]: in the assay with Male CFLP mice, the “% Inhibition of response to collagen” value is on record as 38 p<0.05%.

As for `CCOC(=O)C1CCN(c2ccc(CC(C)NCC(O)c3cccc(C(F)(F)F)c3)cc2)CC1` (centres unmarked) [Example 13, N-[2-(4-(1-(4-Carboethoxy)piperidyl)phenyl)-1-methylethyl]-2-hydroxy-2-(3-trifluoromethylphenyl)ethanamine], in the assay on Female CFLP mice [1], the “Mean Food Intake” value is given as 95 percentage, the “Mean Energy Expenditure (0-3 h)” value is recorded as 121 percentage and the “Mean Energy Expenditure (0-21 h)” value came out at 103 percentage.

For `CC(Cc1ccc(N2CCCC2)cc1)NCC(O)c1cccc(C(F)(F)F)c1` (centres unmarked) [Example 11, N-[2-(4-(1-Pyrrolidyl)phenyl)-1-methylethyl] -2-hydroxy-2-(3-trifluoromethylphenyl)ethanamine], in the assay on Female CFLP mice [1], the “Mean Food Intake” value was found to be 95 percentage, the “Mean Energy Expenditure (0-3 h)” value amounted to 151 percentage and the “Mean Energy Expenditure (0-21 h)” value was determined as 112 percentage.

In the case of `CC(=O)Nc1ccc(CC(C)NCC(O)c2cccc(C(F)(F)F)c2)cc1` (centres unmarked) [Example 4, N-(2-(4-Acetylaminophenyl)-1-methylethyl)-2-hydroxy-2-(3-trifluoromethylphenyl)ethanamine], the “% Reduction in area” value in the assay with Female CFLP mice [2] was found to be 15.9%. For the same compound, in the assay with Female CFLP mice [1], the “Mean Food Intake” value stood at 72 percentage, the “Mean Energy Expenditure (0-3 h)” value stood at 151 percentage and the “Mean Energy Expenditure (0-21 h)” value is 115 percentage.

Regarding `CC(Cc1ccc(NS(C)(=O)=O)cc1)NCC(O)c1cccc(C(F)(F)F)c1` (centres unmarked) [Example 2, N-[2-(4-Methylsulphonylaminophenyl)-1-methylethyl]-2-hydroxy-2-(3-trifluoromethylphenyl)ethanamine], in the assay with Female CFLP mice [1], the “Mean Food Intake” value was found to be 99 percentage, the “Mean Energy Expenditure (0-3 h)” value was 142 percentage and the “Mean Energy Expenditure (0-21 h)” value amounted to 102 percentage.

For `CCOC(=O)Nc1ccc(CC(C)NCC(O)c2cccc(C(F)(F)F)c2)cc1` (centres unmarked) [Example 3, N-[2-(4-Ethoxycarbonylaminophenyl)-1-methylethyl]-2-hydroxy-2-(3-trifluoromethylphenyl)ethanamine], in the assay with Female CFLP mice [1], the “Mean Food Intake” value is 76 percentage, the “Mean Energy Expenditure (0-3 h)” value worked out at 139 percentage and the “Mean Energy Expenditure (0-21 h)” value was 121 percentage.

On to `CNC(=O)C1CCN(c2ccc(CC(C)NCC(O)c3cccc(C(F)(F)F)c3)cc2)CC1` (centres unmarked) [Example 14, N-[2-(4-(1-(4-N'-Methylcarboxamido)piperidyl)phenyl)-1-methylethyl]-2-hydroxy-2-(3-trifluoromethylphenyl)ethanamine], for which, in the assay on Female CFLP mice [1], the “Mean Food Intake” value was 106 percentage, the “Mean Energy Expenditure (0-3 h)” value stood at 118 percentage and the “Mean Energy Expenditure (0-21 h)” value amounted to 102 percentage.

As for `CC(Cc1ccc([N+](=O)[O-])cc1)NCC(O)c1cccc(C(F)(F)F)c1` (centres unmarked) [Example 9, N-[2-(4-Nitrophenyl)-1-methylethyl]-2-hydroxy-2-(3-trifluoromethylphenyl) ethanamine], the “% Reduction in area” value in the assay on Female CFLP mice [2] was found to be 13.2%. Also, in the assay on Female CFLP mice [1], the “Mean Food Intake” value was found to be 94 percentage, the “Mean Energy Expenditure (0-3 h)” value is 112 percentage and the “Mean Energy Expenditure (0-21 h)” value worked out at 115 percentage.

Consider `CNC(=O)Nc1ccc(CC(C)NCC(O)c2cccc(C(F)(F)F)c2)cc1` (centres unmarked) [Example 5, N-[2-(4-Methylaminocarbonylaminophenyl)-1-methylethyl]-2-hydroy-2-(3-trifluoromethylphenyl)ethanamine], for which, in the assay on Female CFLP mice [1], the “Mean Food Intake” value came to 72 percentage, the “Mean Energy Expenditure (0-3 h)” value is on record as 159 percentage and the “Mean Energy Expenditure (0-21 h)” value turned out to be 121 percentage.

In the case of `CC(Cc1ccc(N(C)C)cc1)NCC(O)c1cccc(C(F)(F)F)c1` (centres unmarked) [Example 10, N-[2-(4-Dimethylaminophenyl]-1-methylethyl]-2-hydroxy-2-(3-trifluoromethylphenvl)ethanamine], in the assay on Female CFLP mice [1], the “Mean Food Intake” value came out at 70 percentage, the “Mean Energy Expenditure (0-3 h)” value was determined as 169 percentage and the “Mean Energy Expenditure (0-21 h)” value came to 125 percentage.
